Source: patent US5492822A, “Method for recovering purified 100,000 dalton molecular weight fraction of human pancreatic cholesterol esterase” (Lange, III; Louis G., priority 1995, dated 1996)
One block for each molecule: values may come before it.

Legend:
[1] = tested on: small intestine membrane vesicles (membrane-bound heparin); assay: Binding of 125I-labeled bovine pancreatic enzymes to small intestine membrane vesicles; conditions: 125I-labeled bovine pancreatic enzyme, 1% Blotto
Method: Exogenous heparin inhibits the interaction and binding of pancreatic choleserol esterase to small intestine vesicles prepared from proximal small intestine segments homogenized in 10 mM Tris-Cl, pH 7.2, and centrifuged at 48,000 X g for 45 minutes. Vesicles contained 1.0 mg protein/ml, 30 ug total cholesterol/mg protein and 50 ug endogenous heparin/mg protein. ^125 I-cholesterol esterase (100K or 67K form) was added (0 to 400 pmol; 2,000 dpm/pmol) to 100 ug of protein of small intestine vesicles in 10 mM Tris-Cl, pH 7.2 for 15 min. at 37°. The concentration of offered ^125 I-cholesterol esterase varied between 10 nM and 1 uM. Experiments were performed utilizing 1% blotto to decrease nonspecific protein binding to the vesicles. […] The filtrate was-collected to assess free (unbound) enzyme, and the filters were then immediately washed with 15 ml of cold buffer and counted for ^125 I. Total binding was defined as ^125 I-dpm bound to filter paper minus ^125 I-dpm detected in the same reaction without vesicles (background). Nonspecific binding (radioactivity bound to the vesicles in the presence of excess cold ligand) was quantitated as the amount of ^125 I-cholesterol esterase binding in the presence of a 1000-fold molar excess of unlabeled cholesterol esterase as described above. […]

[2] = biological target: T1, human pancreatic cholesterol esterase (Homo sapiens, UniProt P19835); assay: Binding of 125I-cholesterol esterase to small intestine vesicles and its displacement
T1 construct: from tissue; host or cells: human pancreas (autopsy)
T1 sequence (P19835 21-753): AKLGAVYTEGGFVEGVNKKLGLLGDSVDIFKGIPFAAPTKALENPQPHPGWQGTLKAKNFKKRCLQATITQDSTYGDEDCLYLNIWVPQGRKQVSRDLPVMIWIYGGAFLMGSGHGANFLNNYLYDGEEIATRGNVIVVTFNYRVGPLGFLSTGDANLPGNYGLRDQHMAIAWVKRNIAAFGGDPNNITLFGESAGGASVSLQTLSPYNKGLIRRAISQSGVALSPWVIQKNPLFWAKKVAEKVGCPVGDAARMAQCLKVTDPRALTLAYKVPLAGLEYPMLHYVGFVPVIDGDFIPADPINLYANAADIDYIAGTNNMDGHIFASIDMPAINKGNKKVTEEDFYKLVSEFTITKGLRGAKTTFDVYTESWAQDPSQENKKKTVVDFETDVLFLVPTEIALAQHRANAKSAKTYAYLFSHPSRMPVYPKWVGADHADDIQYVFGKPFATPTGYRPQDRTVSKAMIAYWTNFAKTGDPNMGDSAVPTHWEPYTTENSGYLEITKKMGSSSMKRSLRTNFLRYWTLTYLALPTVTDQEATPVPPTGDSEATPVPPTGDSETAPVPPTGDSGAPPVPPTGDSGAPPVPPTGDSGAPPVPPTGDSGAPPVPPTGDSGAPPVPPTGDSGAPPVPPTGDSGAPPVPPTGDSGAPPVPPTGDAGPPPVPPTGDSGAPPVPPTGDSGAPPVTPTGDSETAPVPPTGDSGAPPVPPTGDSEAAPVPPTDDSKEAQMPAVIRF
Method: (§1) Vesicles contained 1.0 mg protein/ml, 30 ug total cholesterol/mg protein and 50 ug endogenous heparin/mg protein. ^125 I-cholesterol esterase (100K or 67K form) was added (0 to 400 pmol; 2,000 dpm/pmol) to 100 ug of protein of small intestine vesicles in 10 mM Tris-Cl, pH 7.2 for 15 min. at 37°. The concentration of offered ^125 I-cholesterol esterase varied between 10 nM and 1 uM. Experiments were performed utilizing 1% blotto to decrease nonspecific protein binding to the vesicles. After the 15 minute incubation at 37°, the reaction was quenched and the assay mixtures were filtered through wells of a Millipore system containing 0.2 micron pore filters presoaked in buffer. The filtrate was-collected to assess free (unbound) enzyme, and the filters were then immediately washed with 15 ml of cold buffer and counted for ^125 I. Total binding was defined as ^125 I-dpm bound to filter paper minus ^125 I-dpm detected in the same reaction without vesicles (background). Nonspecific binding (radioactivity bound to the vesicles in the presence of excess cold ligand) was quantitated as the amount of ^125 I-cholesterol esterase binding in the presence of a 1000-fold molar excess of unlabeled cholesterol esterase as described above. Specific binding is defined as the difference between total bound dpm and nonspecific-bound dpm (converted to moles bound by dividing by the SRA).

[3] = tested on: human pancreatic cholesterol esterase; assay: as above
Method: as §1

[4] = biological target: T2, human pancreatic triglyceride lipase (52 kDa) (Homo sapiens, UniProt P16233); assay: Triolein hydrolysis by human pancreatic triglyceride lipase (52 kDa); format: biochemical
T2 sequence (P16233 17-465): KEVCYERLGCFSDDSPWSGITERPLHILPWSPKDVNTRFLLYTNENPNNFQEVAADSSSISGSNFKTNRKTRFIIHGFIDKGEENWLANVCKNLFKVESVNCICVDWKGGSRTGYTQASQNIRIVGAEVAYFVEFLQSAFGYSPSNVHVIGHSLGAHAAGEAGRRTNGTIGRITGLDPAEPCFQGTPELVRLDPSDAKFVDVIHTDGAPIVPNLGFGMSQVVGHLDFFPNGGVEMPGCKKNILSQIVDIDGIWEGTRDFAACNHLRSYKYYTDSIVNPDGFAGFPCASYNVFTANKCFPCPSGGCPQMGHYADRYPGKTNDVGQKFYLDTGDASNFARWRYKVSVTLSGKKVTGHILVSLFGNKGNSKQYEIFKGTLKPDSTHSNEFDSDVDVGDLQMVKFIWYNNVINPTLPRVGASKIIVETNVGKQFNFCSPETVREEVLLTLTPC
Description: (§2) Human pancreatic cholesterol esterase (100 kDa) and human pancreatic triglyceride lipase (52 kDa) were purified to homogeneity (Examples 1 and 3), and their abilities to cleave triglycerides and cholesteryl esters were compared. […] Virtually the same results were found with cholesteryl esters; the 100 kDa enzyme cleaved cholesterol oleate at a rate at least 490-fold greater than that found for the 52 kDa triglyceride lipase.

[5] = biological target: T3, human pancreatic cholesterol esterase (100 kDa) (Homo sapiens, UniProt P19835); assay: Triolein hydrolysis by human pancreatic cholesterol esterase (100 kDa); format: biochemical
T3 construct: from tissue; host or cells: human pancreas (autopsy)
T3 sequence (P19835 21-753): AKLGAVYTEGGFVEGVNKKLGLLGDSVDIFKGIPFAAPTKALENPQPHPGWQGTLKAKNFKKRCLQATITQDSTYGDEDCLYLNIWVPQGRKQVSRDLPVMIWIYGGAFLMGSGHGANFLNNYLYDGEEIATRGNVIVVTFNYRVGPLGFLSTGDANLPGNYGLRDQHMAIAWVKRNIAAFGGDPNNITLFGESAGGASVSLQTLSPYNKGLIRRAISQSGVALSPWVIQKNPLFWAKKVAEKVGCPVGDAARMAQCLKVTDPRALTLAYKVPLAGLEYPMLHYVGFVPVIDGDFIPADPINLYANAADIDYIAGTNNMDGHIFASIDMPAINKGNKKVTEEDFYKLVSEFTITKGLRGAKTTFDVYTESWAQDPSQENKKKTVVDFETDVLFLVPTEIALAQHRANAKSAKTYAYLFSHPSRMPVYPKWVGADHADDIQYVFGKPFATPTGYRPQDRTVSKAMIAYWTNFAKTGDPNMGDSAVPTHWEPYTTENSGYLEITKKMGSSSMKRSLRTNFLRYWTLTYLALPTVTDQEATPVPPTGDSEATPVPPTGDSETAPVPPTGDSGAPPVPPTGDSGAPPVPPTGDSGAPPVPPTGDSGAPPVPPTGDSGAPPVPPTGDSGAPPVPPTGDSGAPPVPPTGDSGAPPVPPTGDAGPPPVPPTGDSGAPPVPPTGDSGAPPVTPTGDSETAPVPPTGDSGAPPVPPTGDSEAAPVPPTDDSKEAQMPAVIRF
Description: as §2

[6] = biological target: T1, human pancreatic cholesterol esterase; assay: Elution of human pancreatic cholesterol esterase bound to heparin immobilized on Sepharose; format: binding; conditions: 5 mg/ml chondroitin sulfate
CaCo cells = assay: Cellular uptake of [14C]oleate from [14C]triolein; format: cell-based; conditions: at eight hours
Method: Confluent monolayers of 2×10^6 CaCo cells (Example 5b) were incubated with 2 mM taurocholate and with [^14 C]triolein (5 uM) embedded in phosphatidylcholine vesicles. In the absence of triglyceride lipase, cellular uptake of [^14 C] oleate was linear and at eight hours was 204 pmol. In the presence of human triglyceride lipase (25 nM) and colipase (400 nM), uptake was brisk, reaching 706 pmol at eight hours. Moreover, enzyme-mediated uptake was also dependent on the presence of colipase in the medium, since uptake was only 229 pmol at eight hours in its absence. Heparin (400 uM) added to medium containing triglyceride lipase and colipase reduced uptake from 706 pmol to 329 pmol at eight hours. Thus, heparin decreased cellular uptake of oleate (oleic acid) from cleaved triglyceride by 75%.

[7] = Cholesterol ester synthesis versus hydrolysis by the 52K form; format: biochemical, human
Method: Human pancreatic cholesterol esterase (52K form) can be isolated as follows. Cytosol prepared as above from 30 g pancreas is dialyzed versus 10 mM Tris-Cl, 50 mM benzamidine, pH 8.2 and then chromatographed over DEAE cellulose (2.6×25 cm). Unlike the higher molecular weight forms of cholesterol esterase which bind under these conditions, the 52K species rapidly passes through DEAE cellulose at pH 8.2, with a 40-fold purification and 80% yield. Subsequent chromatography over hydroxylapatite and heparin-Sepharose yields a homogeneous protein (SDS-PAGE, M.W.=52K) with enzymatic activity expressed principally in the synthetic direction for cholesterol esters (rate of synthesis/rate of hydrolysis=10/1). This species also cross-reacts in western blotting to anti-cholesterol esterase antibodies.

binding to small intestine membrane vesicles / membrane-bound heparin [1]: do not bind
Molecule: phospholipase A2: bovine pancreatic phospholipase A2 radiolabeled with Na125I

stimulation of triolein hydrolysis by the 52 kDa enzyme ([4]; 10-fold excess of colipase): 375% | effect on triolein hydrolysis by the 100 kDa esterase ([5]; 50-fold molar excess of colipase): unaffected
B2: colipase: cofactor protein added to triglyceride lipase (protein, UniProt P04118 23-112, looked up)
Colipase: GIIINLENGELCMNSAQCKSNCCQHSSALGLARCTSMASENSECSVKTLYGIYYKCPCERGLTCEGDKTIVGSITNTNFGICHDAGRSKQ

Second part, the molecule before the results:

Molecule: [Cl-].[Na+] [NaCl, reference compound]
displacement of cholesterol esterase from vesicles ([2]; 150 mM NaCl): ineffective | effect on specific binding of 125I-cholesterol esterase to vesicles ([3]; isotonic saline): no effect | inhibition of triolein hydrolysis by the 52 kDa enzyme ([4]; 0.15 M NaCl): 68% | effect on triolein hydrolysis by the 100 kDa esterase ([5]; 0.15 M NaCl): unaffected

Molecule: chondroitin sulfate
elution of bound enzyme from heparin-Sepharose [6]: completely ineffective | displacement of cholesterol esterase from vesicles ([2]; 10 mg/ml chondroitin sulfate): ineffective | decrease of specific binding of 125I-cholesterol esterase to vesicles ([3]; 0.5 to 100-fold molar excesses): less than 10%

B1: Human pancreatic cholesterol esterase (52K form): 52K protein isolated as in Example 3; called triglyceride lipase in Example 10 (protein, UniProt P16233 17-465, looked up)
Pancreatic triacylglycerol …: KEVCYERLGCFSDDSPWSGITERPLHILPWSPKDVNTRFLLYTNENPNNFQEVAADSSSISGSNFKTNRKTRFIIHGFIDKGEENWLANVCKNLFKVESVNCICVDWKGGSRTGYTQASQNIRIVGAEVAYFVEFLQSAFGYSPSNVHVIGHSLGAHAAGEAGRRTNGTIGRITGLDPAEPCFQGTPELVRLDPSDAKFVDVIHTDGAPIVPNLGFGMSQVVGHLDFFPNGGVEMPGCKKNILSQIVDIDGIWEGTRDFAACNHLRSYKYYTDSIVNPDGFAGFPCASYNVFTANKCFPCPSGGCPQMGHYADRYPGKTNDVGQKFYLDTGDASNFARWRYKVSVTLSGKKVTGHILVSLFGNKGNSKQYEIFKGTLKPDSTHSNEFDSDVDVGDLQMVKFIWYNNVINPTLPRVGASKIIVETNVGKQFNFCSPETVREEVLLTLTPC
rate of triolein hydrolysis ([4]; homogeneous 52 kDa enzyme): 27 nmol/hr/g pancreas | cellular uptake of [14C]oleate (CaCo cells; human triglyceride lipase 25 nM and colipase 400 nM): 706 pmol | cellular uptake of [14C]oleate (CaCo cells; triglyceride lipase in the absence of colipase): 229 pmol | rate of synthesis/rate of hydrolysis of cholesterol esters [7]: 10/1
